Results taken from article PMC6017115, “Inhibitory Effect of Sauchinone on UDP-Glucuronosyltransferase (UGT) 2B7 Activity” (Molecules : A Journal of Synthetic Chemistry and Natural …, 2018).
pIC50, pKi: −log10 of the molar value.

Columns and labels:
Assay type in all cases: in vitro ADME
[1] = biological target: T1, UGT1A6 (Homo sapiens, UniProt P19224); assay: Enzyme kinetic assay (Ki, Dixon plot) of UGT1A6-mediated serotonin glucuronidation; conditions: for inhibition mode on UGT1A6: Dixon plot, visual inspection
T1 construct: tissue Corning Life Sciences 452156; host or cells: pooled human liver microsomes
T1 sequence (P19224 27-532): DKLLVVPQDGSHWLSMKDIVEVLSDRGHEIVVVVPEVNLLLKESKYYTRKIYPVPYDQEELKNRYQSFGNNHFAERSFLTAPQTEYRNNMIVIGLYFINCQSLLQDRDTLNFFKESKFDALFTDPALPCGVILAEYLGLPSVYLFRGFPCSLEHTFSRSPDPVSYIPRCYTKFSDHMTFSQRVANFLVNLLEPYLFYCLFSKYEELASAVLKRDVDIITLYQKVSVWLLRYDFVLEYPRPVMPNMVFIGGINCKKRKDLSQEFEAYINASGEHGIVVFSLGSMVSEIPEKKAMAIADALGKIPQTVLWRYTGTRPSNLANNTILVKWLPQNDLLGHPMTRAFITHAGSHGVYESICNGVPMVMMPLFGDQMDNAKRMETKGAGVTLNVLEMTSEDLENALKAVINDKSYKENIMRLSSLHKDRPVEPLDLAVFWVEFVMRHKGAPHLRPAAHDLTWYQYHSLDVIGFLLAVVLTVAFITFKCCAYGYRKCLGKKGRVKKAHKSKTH
Protocol: Inhibitory effects of sauchinone on UGT1A1, 1A3, 1A4, 1A6, 1A9, and 2B7 activities were evaluated using HLMs. […] Spiked volume of UGT cocktail set was 1% (v/v) of total volume of mixture. […] The reaction was initiated by adding 5 mM UDPGA to a final volume of 150 μL and incubated at 37 °C for 15 or 60 min in a thermomixer at 500 rpm. Each reaction was stopped by adding 150 μL of ice-cold methanol containing 50 ng/mL IS. These mixtures were then centrifuged (12,000 rpm for 10 min at 4 °C) and 5 μL of the supernatant was injected into a UPLC-MS/MS system. […] Their IC50 values were compared to that of sauchinone. All inhibitors were dissolved in methanol (except for hecogenin, which was dissolved in dimethyl sulfoxide) and serially diluted to the required concentrations using the same solutions. The final concentration of organic solvent of inhibitors was 1% (v/v). All studies were performed in triplicate and mean values were used in the analysis. The half maximal inhibition constant (IC50) of sauchinone on UGT isoforms was estimated using GraphPad program.
Based on IC50 values, Ki values of sauchinone for UGT1A6 and 2B7 were determined. Concentrations of 0–200 μM of sauchinone were used. Other procedures were similar to those mentioned above in the study of reversible inhibitory effects of sauchinone. Inhibitory characteristics of sauchinone were initially estimated by nonlinear least squares regression analysis and Ki values were determined by Dixon plots.

[2] = biological target: T2, Ugt1a1 (Mus musculus, UniProt Q63886); assay: Inhibition of Ugt1a1 (β-estradiol) in mice liver microsomes; conditions: pH 7.6, probe β-estradiol (10 μM, in UGT substrate cocktail), read-out: IC50 of Ugt1a1-catalyzed β-estradiol
T2 construct: from tissue; host or cells: mouse liver microsomes prepared in house
T2 sequence (Q63886 30-535): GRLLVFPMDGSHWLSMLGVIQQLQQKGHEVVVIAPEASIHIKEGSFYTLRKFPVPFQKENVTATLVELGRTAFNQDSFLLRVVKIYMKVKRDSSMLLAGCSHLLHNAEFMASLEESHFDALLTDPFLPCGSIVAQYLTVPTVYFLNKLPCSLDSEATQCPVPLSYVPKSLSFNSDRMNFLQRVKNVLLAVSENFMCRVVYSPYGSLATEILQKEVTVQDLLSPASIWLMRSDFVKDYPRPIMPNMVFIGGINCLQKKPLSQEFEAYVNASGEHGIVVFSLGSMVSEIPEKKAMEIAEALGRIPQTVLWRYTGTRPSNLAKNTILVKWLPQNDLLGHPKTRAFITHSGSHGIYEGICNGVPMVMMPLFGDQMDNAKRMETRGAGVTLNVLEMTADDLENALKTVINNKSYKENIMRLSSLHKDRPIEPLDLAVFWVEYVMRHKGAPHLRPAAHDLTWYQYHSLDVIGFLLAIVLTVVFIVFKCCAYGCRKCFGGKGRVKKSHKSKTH
Protocol: (§1) Their IC50 values were compared to that of sauchinone. […] Mice were sacrificed and then livers were removed and rinsed with saline. After weighing the livers, they were homogenized with a four-fold volume of ice-cold homogenizing buffer (0.154 M KCl, 50 mM Tris-base, 1 mM EDTA, pH 7.4). After centrifugation for 35 min at 9000× g and 4 °C, the supernatants were centrifuged for 95 min at 100,000× g and at 4 °C. The supernatants were discarded and the pellets were homogenized again with ice-cold homogenizing buffer. These aliquots were stored at −80 °C. The subsequent process to evaluate the inhibitory effects of sauchinone on UGT activities in MLM was the same as those using HLM. UGT-mediated activities in the presence of sauchinone as an inhibitor were expressed as percentages of corresponding control values (in absence of sauchinone). From percentages of control activity versus inhibitor concentrations, a sigmoid shaped curve was fitted to the data and IC50 as an enzyme inhibition parameter was calculated by fitting the Hill equation to the data using GraphPad Prism 5 (GraphPad Software Inc., San Diego, CA, USA).

[3] = system: Ugt1a3; assay: Inhibition of Ugt1a3 (CDCA) in mice liver microsomes; conditions: mouse, pH 7.6, read-out: IC50 of Ugt1a3-catalyzed CDCA
Protocol: as §1

- pKi [1]: 5.97
- inhibition mode on UGT1A6 [1]: noncompetitively inhibited
- inhibition mode on UGT1A6 ([1]; listed as sauchinone): noncompetitive inhibition mode
- Vmax for UGT1A6-mediated serotonin glucuronidation with inhibitor ([1]; sauchinone as inhibitor at 50 μM (decrease from 174 at 0 μM)): 6.36 μM/min/mg protein
- pIC50 [2]: 3.82
- pIC50 [3]: 4.10
SMILES: C[C@@H]1[C@H]2c3cc4c(cc3O[C@@]35OCOC3=CC(=O)[C@H](C[C@H]1C)[C@@H]25)OCO4 [Sauchinone]
